From patent US11150251B2, “Bi-functional arginine-glycine-aspartic acid (RGD) peptides and methods to promote angiogenesis” (Clemson University Research Foundation, priority 2016, dated 2021)
“Also recorded” adds a separate entry of the source. Ends that are not written are not given here. * marks the point of attachment. Meth = methacrylated, methacrylate group attached (2-isocyanatoethyl methacrylate used), C=C(C)C(=O)OCCNC(=O)*

Assays:
hiPSC-CMs [1] = assay: hiPSC-CM adhesion on RGD peptide-functionalized PEG hydrogel microarray; assay type: cell-based, human; conditions: 15 mM peptide, 3 days culture, 18 replicates
Method: (§1) PEGDA and methacrylated peptides were mixed at one fixed peptide concentration (15 mM) to prepare microarrayed hydrogels with a constant peptide concentration. hiPSC-CMs (human induced pluripotent stem cell-derived cardiomyocytes from Cellular Dynamics International, Madison, Wis., USA) were seeded onto the microarray and cultured for 3 days to facilitate the formation of sarcomere structures. hiPSC-CMs were stained with DAPI to approximate cell number and phalloidin for F-actin to estimate cell spreading. Sarcomere structure was examined by using immunofluorescence microscopy.
hiPSC-derived cardiomyocytes (iCell Cardiomyocytes, Cellular Dynamics International, Madison, Wis., USA) were cultured according to the manufacturer's protocol. Briefly, hiPSC-derived cardiomyocytes were plated on 0.1% gelatin coated 6-well plates in iCell Cardiomyocytes Plating Medium (Cellular Dynamics International) at a density of about 3×10^5 to 4.0×10^5 cells/well and incubated at 37° C. in 5% CO2 for 4 days. Two days after plating, the plating medium was removed and replaced with 4 mL of iCell Cardiomyocytes Maintenance Medium (Cellular Dynamics International). After 4 days of monolayer pre-culture, cells were detached using trypLE Express (Gibco Life Technologies, Grand Island, N.Y.) and seeded along with culture media on the hydrogel microarrays. […] Sarcomere structures were visualized using sarcomere actinin and troponin-I staining as described above.

HUVECs [2] = assay: HUVEC culture in 3D peptide-functionalized alginate hydrogels (spreading, proliferation, network formation); assay type: cell-based, human; conditions: 1% alginate, 10% (w/w) peptide, 6 million HUVECs/ml, 2 days culture
Method: The Ca2+ containing substrates for alginate crosslinking was prepared as the previous literature mentioned. Alginate modified with these peptides (RGDS (SEQ ID NO:35), RGDSP (SEQ ID NO:33) and α1-peptide, respectively) was dissolved into HUVECs culturing media to prepare 1% alginate solution. […] mixture of the alginate and HUVECs was transferred into each well in 96 well plates (3 replicates for each peptide). The alginate was left gelling for 40 min. Then the well plates were transferred into incubator for 10 min to melt the Ca2+ containing substrates. After Ca2+ containing substrates get removed, HUVEC culturing media was added into each well and continue culture for additional two days. Media were changed every day. The cells were then fixed and stained with DAPI for cell number counting and phalloidin for F-actin to estimate cell spreading at day 0 and day 2. The fluorescent pictures were taken by a Leica TCS SP5 AOBS confocal microscope system. The total tubule length and the proliferation rates were measured.

VLA-6 integrin = target: T1, VLA-6 integrin (Homo sapiens, UniProt P05556+P23229); assay: Integrin antibody blocking of HUVEC adhesion on alginate surface, anti VLA-6; assay type: cell-based; conditions: 2D peptide-functionalized alginate, anti VLA-6 1:20, 6 hours
T1 construct: endogenous in cells; host or cells: HUVEC
Method: (§2) The integrin antibodies and their combinations (no antibody, anti VLA-6 only, anti-integrin αvβ3 only and anti VLA-6+ anti-integrin αvβ3,) were aliquot into predesigned ratio (final ratios in the mixture: 1:20 for anti VLA-6, 1:100 for anti-integrin αvβ3) with PBS, respectively. The HUVECs were incubated with these antibodies for 15 min, sedimented by low speed centrifugation, suspended in 100 μl of serum-free MEM plus 0.02% BSA and then added into the 1% alginate gel coated wells. The wells were transferred into incubator for 6 hours. After that, unattached cells were rinsed from the wells and the attached cells were then fixed and stained with DAPI for cell number counting and phalloidin for F-actin.

αvβ3 integrin = target: T2, αvβ3 integrin (Homo sapiens, UniProt P05106+P06756); assay: Integrin antibody blocking of HUVEC adhesion on alginate surface, anti-integrin αvβ3; assay type: cell-based; conditions: 2D peptide-functionalized alginate, anti-integrin αvβ3 1:100, 6 hours
T2 construct: endogenous in cells; host or cells: HUVEC
Method: as §2

VLA-6 and αvβ3 integrin = assay: Integrin antibody blocking of HUVEC adhesion on alginate surface, anti VLA-6 + anti-integrin αvβ3; assay type: cell-based, human; conditions: for decrease in HUVEC adhesion when both VLA-6 and αvβ3 integrin are blocked: 2D peptide-functionalized alginate, both antibodies, 6 hours; for integrin binding concluded from blocking experiments: HUVECs on peptide-functionalized alginates
Method: as §2

hiPSC-CMs [3] = assay: Sarcomere formation / alpha sarcomeric actinin expression of hiPSC-CMs on hydrogel microarray; assay type: cell-based, human; conditions: 15 mM peptide, 3 days culture
Method: as §1
Briefly, hiPSC-CMs on the microarray were fixed with 4% PFA solution and blocked by 10% goat serum. […] Z-stacked Images collected from the microarray were analyzed by using the ImageJ (National Institutes of Health) for semi-quantitative analysis of the expression level of alpha sarcomeric actinin of hiPSC-CMs on the microarrays. The sarcomeric actinin expression level of hiPSC-CMs on each hydrogel spot was determined by the total fluorescence intensities of sarcomeric actinin staining divided by the total cell number on the hydrogel spot, which was then normalized to the blank PEG-700 hydrogel spots. […]

hADSCs = assay: hADSC adhesion on peptide-functionalized PEGDA-700 hydrogel microarray (peptide function validation, glycine linker length); assay type: cell-based, human; conditions: for saturation number of attached hADSCs relative to MethRGDSP and MethG2RGDSP: saturated (maximum) number of attached cells, peptide 0.5-15 mM, 12 hours; for adhesion of hADSCs on peptide-functionalized PEGDA-700 hydrogels: 15 mM peptide
Method: PEGDA and methacrylated peptides were mixed at varied peptide concentrations (i.e., 0.5, 1, 3, 6, 9, 12 and 15 mM) to prepare microarrayed hydrogels with different peptide concentrations. hADSCs were seeded onto the array and cultured for 12 hours.
All experiments were conducted using passage 5 (P5) hADSCs.

HUVECs (EC integrin) = assay: HUVEC adhesion on RGD peptide-functionalized PEG hydrogel microarray; assay type: cell-based, human; conditions: for affinity to HUVECs / HUVEC adhesion on PEG hydrogel microarray: 12 hours culture
Method: Methacrylated peptides (shown in FIG. 7) were dissolved in DMF at pre-designated ratios (1 mM, 3 mM, 6 mM, 9 mM, 12 mM, 15 mM and 20 mM) and mixed with PEGDA (containing 1% DMPA as initiator) (DMF solution of methacrylated peptide: PEGDA=1:1 (v/v)) and then transferred into a 384 well plate for microarray fabrication. The microarrays were printed in a humid Ar-atmosphere on epoxy monolayer-coated glass slides (Xenopore XENOSLIDE E, Hawthorne, N.J.) which were first dip-coated in 4 v/v % poly(hydroxyethyl methacrylate) (i.e., poly(HEMA)) using a customized microarrayer (Biodot). Spots were polymerized via 10 s exposure to long wave UV (365 nm), dried at <50 mtorr for at least 7 days. Before use, the chips were sterilized by UV for 30 min for each side, and then washed with PBS twice for 15 min to remove residual monomer or solvent. HUVECs (human umbilical vein endothelial cells from Lonza, Basel, Switzerland) were seeded onto the array and cultured for 12 hours. They were then fixed and stained with DAPI for cell number counting and phalloidin for F-actin to estimate cell spreading for the lead peptide identification.

HUVECs [4] = assay: HUVEC adhesion on 2D surface of peptide-modified alginate hydrogel; assay type: cell-based, human; conditions: 10% (w/w) peptide, 1% alginate, versus RGDS
Method: The peptides were conjugated onto the oxidized alginate by the EDC-NHS chemistry as reported by Rowley: using aqueous carbodiimide reacted with peptides (RGDS (SEQ ID NO:35), RGDSP (SEQ ID NO:33) and α1-peptide) onto the oxidized alginate. In order to secure sufficient cell attachment, 10% (w/w) peptide modification was performed into the alginate hydrogel.
The Ca2+ containing substrates for alginate crosslinking was prepared according to the literature. 50 μl, 1% alginate modified with peptides (RGDS (SEQ ID NO:35), RGDSP (SEQ ID NO:33) and α1-peptide, respectively) aqueous solution was transferred into each well in 96 well plates (3 replicates for each peptide). The alginate was left gelling for 40 min. Then the well plates were transferred into incubator for 10 min to melt the Ca2+ containing substrates. After Ca2+ containing substrates get removed, HUVECs were seeded onto the hydrogel layers and cultured for 12 hours. Then they were fixed and stained with DAPI for cell number counting and phalloidin for F-actin to estimate cell spreading.

KDR (VEGFR2) = assay: RT-PCR of VEGFR2 mRNA in HUVECs in 3D peptide-modified alginate gel; assay type: cell-based, human; conditions: HUVECs in 3D peptide-functionalized alginate hydrogels, 6 hours culture
Method: Before PCR experiments, HUVECs were seeded in three different peptides (RGDS (SEQ ID NO:35), RGDSP (SEQ ID NO:33) and α1-peptide, respectively) modified 1% alginate gel. The cells were cultured for 6 hrs and then harvest for RNA isolation. Total RNA was isolated according to the kit and protocol of an RNeasy Micro Kit (Qiagen, Vinlo, Netherlands) with the addition of the QIAShredder (Qiagen) during the homogenization step for HUVECs. For each group, around 0.1 million cells were used for RNA isolation. At least 25 ng of total RNA for each group was used for cDNA synthesis by the Bio-Rad (Hercules, USA) iScript cDNA synthesis kit. qRT-PCR was executed with “best coverage” validated Taqman primers (Life Technologies, Carlsbad, USA) in 10 μl reactions for the following genes: KDR (VEGFR2), ACTB, GAPDH. qRT-PCR Data was normalized as the change in cycle threshold (dCt) from the geometric mean of ACTB and GAPDH expression. Expression was analyzed using mRNA expression=2^(−(dCt)) and then normalized to the gene expression from RGDS (SEQ ID NO:35) samples.

[5] = test system: VLA-6 (α6) and αvβ3 integrin subunits; conditions: cited from earlier work

T1 sequence (P23229 24-938 limits assumed): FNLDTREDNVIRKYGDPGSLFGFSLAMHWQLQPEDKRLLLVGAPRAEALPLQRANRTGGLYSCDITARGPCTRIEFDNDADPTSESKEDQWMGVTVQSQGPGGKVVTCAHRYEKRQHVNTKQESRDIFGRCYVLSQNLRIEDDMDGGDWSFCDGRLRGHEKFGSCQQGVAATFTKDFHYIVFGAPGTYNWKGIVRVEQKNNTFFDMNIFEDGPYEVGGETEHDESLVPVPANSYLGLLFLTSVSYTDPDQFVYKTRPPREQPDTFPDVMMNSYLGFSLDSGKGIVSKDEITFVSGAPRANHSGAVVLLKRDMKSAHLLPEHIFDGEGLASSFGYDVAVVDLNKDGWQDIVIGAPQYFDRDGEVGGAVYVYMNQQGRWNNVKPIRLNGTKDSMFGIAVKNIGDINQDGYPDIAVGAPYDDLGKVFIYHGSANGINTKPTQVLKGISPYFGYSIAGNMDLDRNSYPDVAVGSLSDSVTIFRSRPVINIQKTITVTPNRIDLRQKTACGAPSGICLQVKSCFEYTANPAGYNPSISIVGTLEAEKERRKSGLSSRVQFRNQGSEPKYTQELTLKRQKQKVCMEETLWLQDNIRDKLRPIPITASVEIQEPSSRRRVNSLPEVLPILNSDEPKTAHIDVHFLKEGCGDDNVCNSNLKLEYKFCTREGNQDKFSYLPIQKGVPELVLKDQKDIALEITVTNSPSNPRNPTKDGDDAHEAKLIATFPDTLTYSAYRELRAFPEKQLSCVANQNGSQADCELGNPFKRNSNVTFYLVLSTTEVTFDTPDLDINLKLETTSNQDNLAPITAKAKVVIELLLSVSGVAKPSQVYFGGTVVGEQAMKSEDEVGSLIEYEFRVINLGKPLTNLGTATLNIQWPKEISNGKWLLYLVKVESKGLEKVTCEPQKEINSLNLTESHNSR
T1 sequence (P23229 942-1130 partner limits assumed): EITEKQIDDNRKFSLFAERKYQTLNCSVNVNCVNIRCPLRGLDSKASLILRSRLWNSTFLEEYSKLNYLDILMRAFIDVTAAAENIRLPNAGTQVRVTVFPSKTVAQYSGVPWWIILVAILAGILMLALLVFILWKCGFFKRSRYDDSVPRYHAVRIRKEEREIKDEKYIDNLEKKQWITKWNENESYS
T1 sequence (P05556 21-798): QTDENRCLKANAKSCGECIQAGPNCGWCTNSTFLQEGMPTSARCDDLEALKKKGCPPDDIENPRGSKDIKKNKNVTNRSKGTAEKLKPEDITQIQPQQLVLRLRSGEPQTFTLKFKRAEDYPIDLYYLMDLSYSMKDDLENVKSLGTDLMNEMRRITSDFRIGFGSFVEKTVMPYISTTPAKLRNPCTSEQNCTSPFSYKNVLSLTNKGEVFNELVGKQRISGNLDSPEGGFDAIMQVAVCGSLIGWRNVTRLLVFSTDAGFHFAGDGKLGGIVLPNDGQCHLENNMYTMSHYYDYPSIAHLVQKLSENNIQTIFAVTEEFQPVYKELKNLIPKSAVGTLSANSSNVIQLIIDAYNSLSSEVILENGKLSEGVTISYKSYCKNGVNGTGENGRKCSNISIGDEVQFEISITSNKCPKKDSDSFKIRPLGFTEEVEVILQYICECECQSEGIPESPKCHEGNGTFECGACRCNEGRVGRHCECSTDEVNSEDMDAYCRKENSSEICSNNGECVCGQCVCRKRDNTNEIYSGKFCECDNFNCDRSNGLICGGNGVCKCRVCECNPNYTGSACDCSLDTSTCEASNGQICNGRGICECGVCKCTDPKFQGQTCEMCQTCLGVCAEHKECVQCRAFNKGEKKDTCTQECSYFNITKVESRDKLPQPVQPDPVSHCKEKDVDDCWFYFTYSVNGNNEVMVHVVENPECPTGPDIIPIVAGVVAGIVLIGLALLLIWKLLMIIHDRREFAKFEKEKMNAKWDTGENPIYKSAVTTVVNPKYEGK
T2 sequence (P06756 31-889 limits assumed): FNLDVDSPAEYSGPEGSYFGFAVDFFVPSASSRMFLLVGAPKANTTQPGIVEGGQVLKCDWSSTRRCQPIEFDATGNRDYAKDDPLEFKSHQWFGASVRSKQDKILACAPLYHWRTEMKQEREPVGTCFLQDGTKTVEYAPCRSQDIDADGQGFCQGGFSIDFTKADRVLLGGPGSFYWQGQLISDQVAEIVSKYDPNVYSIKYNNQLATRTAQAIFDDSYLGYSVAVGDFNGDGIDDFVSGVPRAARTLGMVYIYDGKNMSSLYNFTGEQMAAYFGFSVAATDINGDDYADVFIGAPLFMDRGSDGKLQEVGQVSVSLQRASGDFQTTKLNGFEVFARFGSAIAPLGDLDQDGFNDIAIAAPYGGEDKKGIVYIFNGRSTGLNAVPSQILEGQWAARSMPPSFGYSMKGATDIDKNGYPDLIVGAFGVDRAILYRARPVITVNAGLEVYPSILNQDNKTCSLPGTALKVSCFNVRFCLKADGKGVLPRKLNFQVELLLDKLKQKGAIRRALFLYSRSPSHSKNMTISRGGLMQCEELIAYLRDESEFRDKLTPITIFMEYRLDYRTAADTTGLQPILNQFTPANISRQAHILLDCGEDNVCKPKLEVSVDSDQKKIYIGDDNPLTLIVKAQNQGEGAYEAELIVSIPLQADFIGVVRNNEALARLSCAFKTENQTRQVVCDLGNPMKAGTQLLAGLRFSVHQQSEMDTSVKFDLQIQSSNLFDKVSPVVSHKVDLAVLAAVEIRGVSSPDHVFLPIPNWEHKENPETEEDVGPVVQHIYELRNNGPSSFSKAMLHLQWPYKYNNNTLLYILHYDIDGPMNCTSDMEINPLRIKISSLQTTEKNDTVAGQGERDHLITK
T2 sequence (P06756 891-1048 partner limits assumed): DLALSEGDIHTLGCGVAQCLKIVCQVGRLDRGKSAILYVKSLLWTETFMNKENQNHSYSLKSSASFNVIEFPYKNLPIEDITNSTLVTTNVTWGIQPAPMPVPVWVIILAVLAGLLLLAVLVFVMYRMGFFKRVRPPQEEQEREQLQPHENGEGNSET
T2 sequence (P05106 27-788): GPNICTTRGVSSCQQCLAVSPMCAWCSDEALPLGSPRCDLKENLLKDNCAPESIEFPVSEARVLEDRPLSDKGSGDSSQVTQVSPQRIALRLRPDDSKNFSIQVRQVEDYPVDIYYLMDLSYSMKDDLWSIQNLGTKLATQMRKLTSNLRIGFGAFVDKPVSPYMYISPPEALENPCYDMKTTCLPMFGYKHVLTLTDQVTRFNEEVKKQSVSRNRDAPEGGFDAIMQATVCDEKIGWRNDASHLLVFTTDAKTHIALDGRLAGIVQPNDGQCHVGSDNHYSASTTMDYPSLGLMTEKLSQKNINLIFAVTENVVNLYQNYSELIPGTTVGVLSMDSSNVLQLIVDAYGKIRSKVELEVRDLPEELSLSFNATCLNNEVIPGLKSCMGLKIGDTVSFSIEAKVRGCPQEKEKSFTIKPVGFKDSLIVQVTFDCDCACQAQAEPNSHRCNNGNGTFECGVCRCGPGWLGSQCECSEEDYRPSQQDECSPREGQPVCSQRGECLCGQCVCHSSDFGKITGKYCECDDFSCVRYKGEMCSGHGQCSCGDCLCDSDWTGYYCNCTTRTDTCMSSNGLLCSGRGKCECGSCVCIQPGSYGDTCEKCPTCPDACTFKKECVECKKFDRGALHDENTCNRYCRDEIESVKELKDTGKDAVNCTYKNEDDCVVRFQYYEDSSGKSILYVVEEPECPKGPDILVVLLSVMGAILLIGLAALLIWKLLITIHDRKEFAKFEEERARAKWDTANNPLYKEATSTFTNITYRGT

DAVKQLQAAERGDA [derived from Laminin subunit α4]
hiPSC-CM adhesion / affinity to hiPSC-CMs (hiPSC-CMs [1]): substantial activities to support hiPSC-CM adhesion

RGDS [RGD peptide derived from Fn]
HUVEC spreading, proliferation and network formation in 3D alginate hydrogel (HUVECs [2]): limited cell spreading and no visible network formation | decrease in HUVEC adhesion when VLA-6 integrin is blocked (VLA-6 integrin): does not significantly affect cell adhesion | decrease in HUVEC adhesion when αvβ3 integrin is blocked (αvβ3 integrin): ~35% | decrease in HUVEC adhesion when both VLA-6 and αvβ3 integrin are blocked (VLA-6 and αvβ3 integrin): ~35% | integrin binding concluded from blocking experiments (VLA-6 and αvβ3 integrin): bind to αvβ3 integrin

PQVTRGDVFTMP [RGD peptide from vitronectin, included as a control, reference compound]
hiPSC-CM adhesion / affinity to hiPSC-CMs (hiPSC-CMs [1]): moderate cell adhesion

PMQKMRGDVFSP [derived from Laminin subunit β4]
hiPSC-CM adhesion / affinity to hiPSC-CMs (hiPSC-CMs [1]): greatest ability to promote hiPSC-CM adhesion; also recorded: substantial activities to support hiPSC-CM adhesion; also recorded: highest affinity to hiPSC-CMs | sarcomere formation / sarcomeric actinin expression of hiPSC-CMs (hiPSC-CMs [3]): greatest ability to promote hiPSC-CM adhesion and sarcomere formation; also recorded: most developed sarcomere structures | sarcomere formation / sarcomeric actinin expression of hiPSC-CMs (hiPSC-CMs [3]; listed as RGD (SEQ ID NO:36) peptide from laminin β4 subunit): highest sarcomeric actinin expression

SETQRGDVFVP [RGD peptide of the 12-peptide library, reference compound]
hiPSC-CM adhesion / affinity to hiPSC-CMs (hiPSC-CMs [1]): moderate cell adhesion

MethG6RGDSP: methacrylated-RGDSP-peptide with 6 glycine linker (Meth-GGGGGGRGDSP)
saturation number of attached hADSCs relative to MethRGDSP and MethG2RGDSP (hADSCs): about one-fold higher

TFALRGDNP [α1 peptide, RGD peptide derived from Ln α1 subunit]
affinity to HUVECs / HUVEC adhesion on PEG hydrogel microarray (HUVECs (EC integrin)): highest activities to promote HUVEC adhesion | saturated number of attached HUVECs, higher than RGDS (HUVECs (EC integrin); PEG hydrogel microarray, versus RGDS): ~500% | saturated number of attached HUVECs, higher than RGDSP (HUVECs (EC integrin); PEG hydrogel microarray, versus RGDSP): ~200% | number of HUVECs attached to 2D surface of alginate hydrogel, higher than RGDS (HUVECs [4]): ~150% | HUVEC spreading, proliferation and network formation in 3D alginate hydrogel (HUVECs [2]): significantly enhanced cell proliferation and network formation | decrease in HUVEC adhesion when both VLA-6 and αvβ3 integrin are blocked (VLA-6 and αvβ3 integrin): ~70% | integrin binding concluded from blocking experiments (VLA-6 and αvβ3 integrin): binds to both VLA-6 and αvβ3 integrin | mRNA expression of VEGFR2 (KDR (VEGFR2)): significantly up-regulated

G4RDGSP: methacrylated scrambled sequence of G4RGDSP (Meth-GGGGRDGSP) [reference compound]
adhesion of hADSCs on peptide-functionalized PEGDA-700 hydrogels (hADSCs): no cell adhesion

RGDSP [RGD peptide derived from Fn]
affinity to HUVECs / HUVEC adhesion on PEG hydrogel microarray (HUVECs (EC integrin)): significantly higher affinity to HUVECs than RGDS | HUVEC spreading, proliferation and network formation in 3D alginate hydrogel (HUVECs [2]): limited cell spreading and no visible network formation | decrease in HUVEC adhesion when VLA-6 integrin is blocked (VLA-6 integrin): does not significantly affect cell adhesion | integrin binding concluded from blocking experiments (VLA-6 and αvβ3 integrin): bind to αvβ3 integrin | mRNA expression of VEGFR2 (KDR (VEGFR2)): significant higher amount of VEGFR2 mRNA expression

CQAGTFALRGDNPQG [A99, similar Ln derived peptide]
integrin binding reported for A99 [5]: bind to both VLA-6 (α6) and αvβ3 integrin subunits

MethG4RGDSP: methacrylated-RGDSP-peptide with 4 glycine linker (Meth-GGGGRGDSP)
adhesion of hADSCs on peptide-functionalized PEGDA-700 hydrogels (hADSCs): effectively promote adhesion of hADSCs | saturation number of attached hADSCs relative to MethRGDSP and MethG2RGDSP (hADSCs): about one-fold higher
